Data on seven compounds can be found in ChEMBL document CHEMBL1201862, “PubChem BioAssay data set” (2004).

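A five-concentration, 48-hour dose response in 96-well plates underlies each endpoint, interpolated linearly between surrounding concentrations. The concentration for 50% growth inhibition is given as GI50.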 The source made the active and inactive calls. Rule as the data show it: active = GI50 up to about 1.1 µM and inactive = higher. *1 amine or outer side, *2 acyl side, *3 side chain or, on linkers, in order; H or OH if unused. Where a SMILES comes first, the peptide text is derived from it. [ ]: non-standard residue; d: D form. The star is where a group is joined. ξ: configuration not given here. X53 = CC(C)C[C@H](N[*:1])C1=N[C@H](C(=O)[*:2])CS1; Ile(3ξ) = CCC(C)[C@H](N)C(=O)O; Allyl(1,1-Me2) = C=CC(C)(C)*

Common to all, as to experiment: NCI-60 cell line screen, 48 h
For assay [1], the system named is 786-0.
Assay [2] has as its system U-251.
In assay [3] the test system is MDA-MB-231.
In assay [4] the test system is HCT-15.
The subject of assay [5] is Hs-578T.
The subject of assay [6] is SK-OV-3.
The subject of assay [7] is OVCAR-8.
Assay [8] relates to IGROV-1.
Assay [9] concerns OVCAR-5.
The subject of assay [10] is COLO 205.
The test system of assay [11] is UACC-62.
Assay [12] concerns M14.
Assay [13] concerns SF-268.
Assay [14] deals with MDA-MB-435.
Assay [15] has as its system HOP-92.
Assay [16] concerns KM12.
Assay [17] has as its system RXF 393.
For assay [18], the system named is NCI-H23.
Assay [19] concerns CCRF-CEM.
Assay [20] has as its system TK-10.

As to `COc1cccc(CCNC(=O)Cc2ccccc2CCO)c1`, the GI50 in [1] is > 100 µM (inactive); in assay [2], > 100 µM (inactive); in [3], > 100 µM (inactive); in assay [4], > 100 µM; in [5] it was > 100 µM (inactive); in assay [6], > 100 µM (inactive). For the same compound, the GI50 in assay [7], in assay [8], in assay [9], in assay [10], in assay [11] and in assay [12] was > 100 µM (inactive) each time. The GI50 in assay [13], in assay [14], in [15], in [16], in assay [17] and in assay [18] was > 100 µM (inactive) in each case. In addition, the GI50 in assay [19] and in assay [20] was > 100 µM (inactive) in each case.
Regarding `COC1C=COC2(C)Oc3c(C)c(O)c4c(O)c(c(C5SCCS5)c(O)c4c3C2=O)NC(=O)/C(C)=C\C=CC(C)C(O)C(C)C(O)C(C)C(OC(C)=O)C1C` (stereo not given), the GI50 in [1] is 8.87 µM (inactive); in assay [2], 3.95 µM (inactive); in [3], 5.71 µM (inactive); in [4] it was 9.66 µM; in [5], 13.4 µM (inactive); in assay [6] it was 14.1 µM (inactive). The GI50 was 7.87 µM (inactive) in [7]; 7.33 µM (inactive) in [8]; 12.7 µM (inactive) in [9]; 2.49 µM (inactive) in assay [10]; 6.18 µM (inactive) in assay [11]; 6.19 µM (inactive) in assay [12]. The GI50 is 11 µM (inactive) in assay [13]; 4.26 µM (inactive) in [14]; 10.1 µM (inactive) in assay [15]; 5.35 µM (inactive) in [16]; 6.05 µM (inactive) in assay [17]; 4.69 µM (inactive) in assay [18]. The GI50 was 2.26 µM (inactive) in [19] and 3.21 µM (inactive) in assay [20].
For the compound `COc1cc(C(=O)/C=C/c2ccc(OCC#N)cc2)cc(OC)c1OC`, the GI50 was 22.2 µM (inactive) in [1]; 18 µM (inactive) in assay [2]; > 10 µM (inactive) in assay [3]; 19.5 µM in assay [4]; 25.1 µM (inactive) in [5]; 40.6 µM (inactive) in assay [6]. The GI50 in [7] is 29.5 µM (inactive); in [8], 38.4 µM (inactive); in assay [9] it was 47.5 µM (inactive); in assay [10], 20 µM (inactive); in [11], 21.2 µM (inactive); in [12], > 10 µM (inactive). The GI50 in [13] is 33.3 µM (inactive); in assay [14], 20.5 µM (inactive); in assay [15], 17 µM (inactive); in assay [16], 16 µM (inactive); in [17], 18.1 µM (inactive); in [18], 19.5 µM (inactive). The values for the GI50 in assay [19] and in [20] were 19.4 µM (inactive) and 25.1 µM (inactive), respectively.
In the case of `Cc1cc(OCc2nnc3n2S(=O)(=O)c2ccccc2N3C)ccc1Cl`, the GI50 is 11.8 µM (inactive) in [1]; 18.6 µM (inactive) in [2]; 16.3 µM (inactive) in assay [3]; > 100 µM in assay [4]; 40.8 µM (inactive) in [5]; 10.4 µM (inactive) in assay [6]. For the same compound, the GI50 in [7] was 26.3 µM (inactive); in assay [8], 22.9 µM (inactive); in [9] it was > 100 µM (inactive); in [10] it was > 100 µM (inactive); in assay [11], 17.2 µM (inactive); in [12], > 100 µM (inactive). Moreover, the GI50 in assay [13] was 16.3 µM (inactive); in assay [14], > 100 µM (inactive); in [15], 16.1 µM (inactive); in [16], > 100 µM (inactive); in assay [17], 21.2 µM (inactive); in assay [18], 34.4 µM (inactive). In addition, the GI50 was 15.7 µM (inactive) in assay [19] and 29.9 µM (inactive) in assay [20].
As for `FC(F)(F)c1ccc(C2=N/S(c3ccccc3)=N\C(c3ccc(C(F)(F)F)cc3)=N/S(c3ccccc3)=N\2)cc1` (stereo not given), the GI50 is 80 µM (inactive) in [1]; > 100 µM (inactive) in assay [2]; > 100 µM (inactive) in [3]; > 100 µM in [4]; > 100 µM (inactive) in assay [5]; > 100 µM (inactive) in assay [6]. Moreover, the GI50 in assay [7], in [8], in [9], in [10], in assay [11] and in assay [12] was > 100 µM (inactive) in each case. Besides, the GI50 in assay [13], in [14], in assay [15], in [16], in assay [17] and in assay [18] was > 100 µM (inactive) in each case. The GI50 in assay [19] and in assay [20] was > 100 µM (inactive) each time.
Turning to `Cc1cc(-c2nc3cc(O)ccc3s2)ccc1N`, the GI50 in assay [1] was 37 µM (inactive); in assay [2] it was 30.5 µM (inactive); in assay [3], 30 µM (inactive); in assay [4], 41.2 µM; in [5] it was 35.2 µM (inactive); in [6], 19.3 µM (inactive). Moreover, the GI50 was 47.1 µM (inactive) in [7]; 33.4 µM (inactive) in [8]; 24.7 µM (inactive) in [9]; 21 µM (inactive) in [10]; 19.9 µM (inactive) in [11]; 20.9 µM (inactive) in assay [12]. The GI50 in [13] was 36.7 µM (inactive); in assay [14], 33.3 µM (inactive); in [15], 76.4 µM (inactive); in [16], 23.2 µM (inactive); in assay [17] it was 27.5 µM (inactive); in [18] it was 46.1 µM (inactive). In addition, the GI50 was 27.7 µM (inactive) in [19] and 38.9 µM (inactive) in [20].
`C=CC(C)(C)OC[C@@H]1NC(=O)CNC(=O)[C@@H]2CCCN2C(=O)[C@H](C(C)CC)NC(=O)[C@@H]2CSC(=N2)[C@H](CC(C)C)NC1=O` (stereo not given in full) (cyclo(GS(Allyl(1,1-Me2))[X53][Ile(3ξ)]P)): the GI50 in assay [1] was > 100 µM (inactive); in assay [2] it was > 100 µM (inactive); in assay [3], > 100 µM (inactive); in assay [4], 58.1 µM; in assay [5], 23.2 µM (inactive); in [6], > 100 µM (inactive). Besides, the GI50 is 69.3 µM (inactive) in assay [7]; 59 µM (inactive) in assay [8]; > 100 µM (inactive) in assay [9]; > 100 µM (inactive) in assay [10]; 72.3 µM (inactive) in [11]; > 100 µM (inactive) in assay [12]. Moreover, the GI50 in assay [13] is 68.4 µM (inactive); in assay [14], 26.4 µM (inactive); in [15], 37.3 µM (inactive); in assay [16], 55.2 µM (inactive); in [17] it was > 100 µM (inactive); in assay [18] it was 43.9 µM (inactive). Besides, the GI50 in assay [19] is 30.9 µM (inactive); in assay [20], > 100 µM (inactive).
